In patent publication US20250332173A1, “COMPOUNDS AND METHODS FOR MODULATING NUCLEIC ACID SPLICING” (REMIX THERAPEUTICS INC., priority 2021, published 2025):
Where two headings read alike, the source gives them in different places.

Assays:
Target C [1] = assay: RT-qPCR splicing assay panel, Target C canonical junction (CJ) mRNA; type: cell-based, human; conditions: Homo sapiens
How it was run: (§1)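 Canonical exon-exon junction transcript levels measured by one-step RT-qPCR of cell lysates, normalized to a housekeeping gene (GAPDH, GUSB or PPIA). Cells used were A673 or K562, exposed for 24 h to compound in 11-point, 3-fold series from 10 uM, with final DMSO at or below 0.25%.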

MYB = assay: HiBiT protein abundance assay, MYB HiBiT K562 cell line; type: cell-based, human; conditions: 24 hours, top dose 10 μM
Description: (§2) Compounds described herein were used to screen for effects on quantitative protein abundance using a HiBit assay system (Promega). Quantitative protein abundance was determined by measuring the protein levels of HiBit-tagged protein targets expressed in cell culture via luminescence using the Nano-Glo HiBiT Lytic Detection System, which uses a split complementation assay format to reconstitute NanoBiT enzyme to generate a luminescent signal. A protein abundance assay was developed such that endogenous protein targets could be modified with the HiBiT peptide tag and their abundance could be assessed after compound treatment. Briefly, K562 cell lines containing a HiBiT-modification were treated with various compounds described herein (e.g., compounds of Formulas (I), (II), (III), (IV), (V), (VI), (VII), (VIII), or (IX)). After treatment for 24 hours, the protein abundance of a specific target was determined by measuring luminescence.
(§3) • Promega Nano-Glo HiBiT Lytic Detection System (cat #N3030) • Corning 384-well TC-treated microplates (cat #3570) • Synthego Engineered Cells Knock-In Clones
(§4) Cells were maintained in IMDM with 10% FBS. Before the assay, cells were diluted with […] growth media (IMDM+[…] media) and were seeded in a 384-well plate at a density of 10,000 cells/well (for each cell line listed in Table 5). Each compound was prepared as a 10-point 3-fold serial dilution in DMSO with the top dose at a final concentration of 10 μM in the well. Unmodified K562 cells were added at the previously specified density with DMSO to serve as an assay baseline and positive control (PC) and DMSO only with the respective modified cell lines was added to the negative control (NC) columns. Final DMSO concentration was kept at or below 0.25%. Treated cell plates were placed in an incubator at 37° C. with […] for 24 hours. After 24 hours, 25 μL of Complete HiBit Lytic reagent was added to each well at room temperature (e.g. one plate requiring 10 mL Lytic Buffer, 100 μL LgBiT Protein, 200 μL Lytic Substrate), shaken for 5 minutes at 600 RPM, then left to sit for 10 minutes for signal to stabilize before reading on a Spark Cyto plate reader (Tecan) with a 500 ms measurement time.
(§5) To determine compound effects on protein abundance of each target in Table 5, the percent response for each respective cell line was calculated at each compound concentration as follows:
(§6) For the normalized response at each concentration, a four-parameter logistical regression was fit to the data and the response was interpolated at the […] to determine a concentration for protein abundance at […] the untreated control.

Target C [2] = assay: HiBiT protein abundance assay, Target C (Promega Nano-Glo HiBiT Lytic Detection System, knock-in K562 cell line); type: cell-based, human; conditions: Homo sapiens, K562, 24 h, read-out: Effect on protein abundance, Target C (IC50 category)
Description: as §3, §4, §5, §6

HTT mRNA = assay: RT-qPCR splicing assay, HTT canonical junction (CJ) and alternative junction (AJ) mRNA; type: cell-based, human; conditions: Homo sapiens
How it was run: (§7)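 Splicing switches were read by TaqMan RT-qPCR on lysates, quantifying exon-exon junctions of the canonical and alternative-exon isoforms. Lysates came from K562 (GAPDH/GUSB reference) or A673 (PPIA reference) cells exposed 24 h to compound in 11 threefold steps from 10 uM, with DMSO ≤0.25%.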

[3] = system: K562 (human chronic myelogenous leukemia) cells; assay: Cell Titer Glo 2.0 cell viability assay; type: cell-based; conditions: Homo sapiens, K562, 72 h, read-out: K562 GI50
HTT = assay: HiBiT protein abundance assay, HTT HiBiT K562 cell line; type: cell-based, human; conditions: 24 hours, top dose 10 μM
Description: as §2, §3, §4, §5, §6

SMN2 mRNA = assay: RT-qPCR splicing assay, SMN2 canonical junction (CJ) mRNA; type: cell-based, human; conditions: Homo sapiens
How it was run: as §1

MYB mRNA = assay: RT-qPCR splicing assay, MYB canonical junction (CJ) and alternative junction (AJ) mRNA; type: cell-based, human; conditions: Homo sapiens
How it was run: as §7

Target C [4] = assay: HiBiT protein abundance assay, Target C HiBiT K562 cell line; type: cell-based; conditions: Homo sapiens; HiBiT lytic detection, modified K562 cells, 24 hours, top dose 10 μM; read-out: Effect on protein abundance, Target C (IC50)
Description: as §3, §4, §5, §6

[5] = Table 5 panel, canonical junction qPCR, compound concentration having 50% response in CJ decrease, read-out: Target C IC50 (decrease in CJ mRNA levels)
[6] = HiBiT K562 cell line, read-out: Effect on protein abundance, MYB (IC50 category)
[7] = HiBiT K562 cell line, 24 hours, top dose 10 μM
[8] = decrease in HTT canonical junction (CJ) mRNA, RT-qPCR, read-out: HTT CJ IC50
[9] = increase in HTT alternative junction (AJ) mRNA, RT-qPCR, read-out: HTT AJ AC50
[10] = Table 5 panel, canonical junction qPCR, compound concentration having 50% response in CJ decrease, read-out: HTT IC50 (decrease in CJ mRNA levels)
[11] = K562 cells, 72 hours, Cell Titer Glo 2.0
[12] = HiBiT K562 cell line, read-out: Effect on protein abundance, HTT (IC50 category)
[13] = Table 5 panel, canonical junction qPCR, compound concentration having 50% response in CJ decrease, read-out: SMN2 IC50 (decrease in CJ mRNA levels)
[14] = decrease in MYB canonical junction (CJ) mRNA, RT-qPCR, read-out: MYB CJ IC50
[15] = increase in MYB alternative junction (AJ) mRNA, RT-qPCR, read-out: MYB AJ AC50
[16] = read-out: Effect on protein abundance, MYB (IC50 category), HiBiT K562 cell line
[17] = read-out: Effect on protein abundance, HTT (IC50 category), HiBiT K562 cell line
[18] = HiBiT lytic detection, modified K562 cells, read-out: Effect on protein abundance, MYB (IC50)
[19] = HiBiT lytic detection, modified K562 cells, read-out: Effect on protein abundance, HTT (IC50)
[20] = canonical junction qPCR panel, Table 5, read-out: MYB (decrease in CJ mRNA levels, IC50)
[21] = canonical junction qPCR panel, Table 5, read-out: HTT (decrease in CJ mRNA levels, IC50)
[22] = canonical junction qPCR panel, Table 5, read-out: SMN2 (decrease in CJ mRNA levels, IC50)

SMILES | IC50 (MYB; [6]) | IC50 (Target C [2]; [7]) | IC50 (HTT mRNA; [8]) | AC50 (HTT mRNA; [9]) | GI50 [3, 11] | IC50 (HTT; [12]) | IC50 (MYB mRNA; [14]) | AC50 (MYB mRNA; [15]) | IC50 (Target C [4]) | IC50 (MYB; [18]) | IC50 (HTT; [19]) | also measured
Cc1cc(-c2ccc3c(=O)n(C4CCNCC4)c(C)nc3c2)cc2cn(C)nc12 [Compound 313] | 1000 to 10000 nM | > 10000 nM | > 10000 nM | > 10000 nM | 1000 to 10000 nM | > 10000 nM | – | – | – | – | – | IC50 (Target C [1]; [5]): > 10000 nM; IC50 (HTT mRNA; [10]): > 10000 nM; IC50 (SMN2 mRNA; [13]): 100 to 1000 nM
O=c1c2c(F)cc(-c3cn[nH]c3)cc2ncn1C1CCNCC1 [Compound 321] | > 10000 nM | > 10000 nM | > 10000 nM | > 10000 nM | > 10000 nM | > 10000 nM | 1000 to 10000 nM | 1000 to 10000 nM | – | – | – | –
Cc1cn2cc(-c3ccc4c(=O)n([C@H]5CCNC5)cc(C)c4c3)cc(F)c2n1 [Compound 451, (S)-6-(8-fluoro-2-methylimidazo[1,2-a]pyridin-6-yl)-4-methyl-2-(pyrrolidin-3-yl)isoquinolin-1(2H)-one] | 1000 to 10000 nM | > 10000 nM | – | – | 1000 to 10000 nM | 1000 to 10000 nM | – | – | – | – | – | IC50 (Target C [1]; [5]): > 10000 nM; IC50 (MYB mRNA; Table 5 panel, canonical junction qPCR, compound concentration having 50% response in CJ decrease, read-out: MYB IC50 (decrease in CJ mRNA levels)): 1000 to 10000 nM; IC50 (HTT mRNA; [10]): > 10000 nM; IC50 (SMN2 mRNA; [13]): 100 to 1000 nM
Cc1cn2nc(-c3ccc4c(=O)n(C5CCNCC5)ccc4c3)cc(CC(=O)N(C)C)c2n1 [Compound 532, N,N-dimethyl-2-[2-methyl-6-[1-oxo-2-(4-piperidyl)-6-isoquinolyl]imidazo[1,2-b]pyridazin-8-yl]acetamide] | – | – | – | – | – | – | – | – | – | – | – | IC50 (Target C [1]; read-out: Target C IC50 (decrease in CJ mRNA levels)): 1000 to 10000 nM; AC50 (MYB mRNA; read-out: MYB AJ AC50 (nM)): 100 to 1000 nM; IC50 (MYB mRNA; read-out: MYB CJ IC50 (nM)): 100 to 1000 nM; IC50 (MYB mRNA; read-out: MYB IC50 (decrease in CJ mRNA levels)): 100 to 1000 nM; IC50 (MYB; [16]): 100 to 1000 nM; IC50 (Target C [2]): 100 to 1000 nM; AC50 (HTT mRNA; read-out: HTT AJ AC50 (nM)): 100 to 1000 nM; IC50 (HTT mRNA; read-out: HTT CJ IC50 (nM)): 100 to 1000 nM; IC50 (HTT mRNA; read-out: HTT IC50 (decrease in CJ mRNA levels)): 100 to 1000 nM; GI50 [3]: 100 to 1000 nM; IC50 (HTT; [17]): 100 to 1000 nM; IC50 (SMN2 mRNA; read-out: SMN2 IC50 (decrease in CJ mRNA levels)): < 100 nM
Cn1cc2cc(-c3cc4ncn(C5CCNCC5)c(=O)c4cn3)c(O)c(F)c2n1 [Compound 1276] | – | – | – | – | 100 to 1000 nM | – | – | – | < 100 nM | 100 to 1000 nM | < 100 nM | –
Cc1c(O)c(-c2ncc3c(=O)n([C@H]4CC[C@H](N)C4)ccc3n2)cc2cn(C)nc12 [Compound 1334] | 100 to 1000 nM | 1000 to 10000 nM | – | – | 100 to 1000 nM | 100 to 1000 nM | – | – | – | – | – | –
Cc1cn2nc(-c3cnc4c(=O)n(C5CCNCC5)ncc4c3)cc(C)c2n1 [Compound 1411] | – | – | – | – | 1000 to 10000 nM | – | – | – | 1000 to 10000 nM | 1000 to 10000 nM | 1000 to 10000 nM | –
Cc1cn2nc(-c3ccc4c(=O)n(C5CCN(C6CCC6)C6(CC6)C5)ncc4n3)cc(C)c2n1 (stereo not drawn) [Compound 1540, 6-(4-cyclobutyl-4-azaspiro[2.5]octan-7-yl)-2-(2,8-dimethylimidazo[1,2-b]pyridazin-6-yl)pyrido[2,3-d]pyridazin-5-one] | – | – | – | – | – | – | – | – | – | – | – | IC50 (Target C [1]; read-out: Target C (decrease in CJ mRNA levels, IC50)): 100 to 1000 nM; IC50 (MYB mRNA; read-out: MYB (decrease in CJ mRNA levels, IC50)): 100 to 1000 nM; AC50 (MYB mRNA; read-out: MYB AJ AC50 (nM)): 100 to 1000 nM; IC50 (MYB mRNA; read-out: MYB CJ IC50 (nM)): 100 to 1000 nM; IC50 (MYB; [16]): 100 to 1000 nM; IC50 (Target C [2]): 100 to 1000 nM; IC50 (HTT mRNA; read-out: HTT (decrease in CJ mRNA levels, IC50)): 100 to 1000 nM; AC50 (HTT mRNA; read-out: HTT AJ AC50 (nM)): 100 to 1000 nM; IC50 (HTT mRNA; read-out: HTT CJ IC50 (nM)): 100 to 1000 nM; GI50 [3]: 100 to 1000 nM; IC50 (HTT; [17]): 100 to 1000 nM; IC50 (SMN2 mRNA; read-out: SMN2 (decrease in CJ mRNA levels, IC50)): < 100 nM
Cn1cc2cc(-n3cnc4ccc(C5=CCNCC5)cc4c3=O)ccc2n1 [Compound 2151] | – | – | > 10000 nM | > 10000 nM | – | – | > 10000 nM | 100 to 1000 nM | > 10000 nM | > 10000 nM | > 10000 nM | IC50 (MYB mRNA; [20]): 100 to 1000 nM; IC50 (HTT mRNA; [21]): > 10000 nM; IC50 (SMN2 mRNA; [22]): > 10000 nM
CN1CCN(c2ccc3ncn(-c4ccc5nn(C)cc5c4)c(=O)c3c2)CC1 [Compound 2154] | – | – | > 10000 nM | > 10000 nM | – | – | > 10000 nM | > 10000 nM | > 10000 nM | > 10000 nM | > 10000 nM | IC50 (MYB mRNA; [20]): > 10000 nM; IC50 (HTT mRNA; [21]): > 10000 nM; IC50 (SMN2 mRNA; [22]): > 10000 nM
